Converted amounts (≈) assume the structure as drawn. Where a name gives a salt, the structure may show the parent alone. One block for each compound: values may come before it.
What was measured:
[1] = Solubility in fasted-state simulated colonic fluid (FaSSCoF); assay type: physicochemical; conditions: for pH 6.5 FaSSCoF Solubility, Run 2 / pH 6.5 FaSSCoF Solubility, Run 1: 24 h; for solubility thermodynamic at 24 h: 25 °C, pH 6.5, fassgf or other biorelevant, thermodynamic from solid
Experimental: The solubilities of compounds of the invention in FaSSCoF at pH 6.5 are determined using a modification of a previously-reported procedure (Vertzoni, M., et al. Pharm. Res. 2010, 27, 2187-2196). In place of the bile salt extract employed in the original procedure (which extract is no longer available), the modified procedure uses a mixture of sodium taurochlorate (0.15 g), glycocholic acid (0.15 g), ursodeoxycholic acid (0.05 g), cholic acid (0.05 g), and glycodeoxycholic acid (0.05 g). These five bile acids are ground together with a mortar and pestle to produce a fine white powder that is incorporated into the FaSSCoF, as outlined below.
Tris(hydroxymethyl)aminomethane (Tris; 0.275 g) and maleic acid (0.44 g) are dissolved in water (35 mL) to give a solution whose pH is adjusted to 6.5 by treatment with 0.5M NaOH (ca. 12 mL). The solution is then made up to 50 mL with water. A portion of this Tris/maleate buffer solution (ca. 25 mL) is added to a 0.5 L round-bottomed flask, before being treated with 0.00565 g of the bile acid mixture described above. Solutions of phosphatidylcholine (0.0111 g) in DCM (0.15 mL) and palmitic acid (0.0013 g) in DCM (0.15 mL) are added, then the organic solvent is evaporated off under reduced pressure at 40° C. until a clear solution, with no perceptible DCM odour, is achieved. The volume of the evaporated solution is adjusted to 50 mL by addition of the remainder of Tris/maleate buffer, then BSA (0.115 g) is added, before being dissolved by gentle agitation.
Test compounds are suspended in the pH 6.5 FaSSCoF medium to give a maximum final concentration of 2-10 mg/mL. The suspensions are equilibrated at 25° C. for 24 h, before being filtered through a glass fibre C filter. The filtrates are then diluted as appropriate for injection and quantification by HPLC with reference to a standard. Different volumes of the standard, diluted and undiluted sample solutions are injected and the solubilities are calculated using the peak areas determined by integration of the peak found at the same retention time as the principal peak in the standard injection.

[2] = Stability of pharmaceutical formulations; assay type: physicochemical; conditions: for Purity at week n = 4: 4 weeks; for Original Purity: 1 mg/mL solution, before storage; for Purity at week n = 1: 1 week; for Purity at week n = 2: 2 weeks
Experimental: The samples were sonicated to achieve clear solutions having the following properties: Osmolality (mOsm/kg): 310 (Na), 314 (HCl); pH: 7.00 (Na), 7.05 (HCl). 0.5 mL of the stock solutions were diluted to 1 mL with 20% DMSO in water & injected for purity analysis by HPLC. The remaining stock solutions were then split into aliquots of 0.5 mL in HPLC vials, and stored at various conditions in duplicate. Samples were stored at 5 and 25° C., before being analysed by HPLC at 1, 2 and 4 weeks. Separate samples were stored at 40° C. and analysed at 4 weeks.

Jurkat cells = test: (r) Cell cytotoxicity assay; assay type: cell-based, human; conditions: 24 hours
How it was run: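 Jurkat cells (1×10^5/well, RPMI + 10% FBS) exposed to compound at 20, 5 or 1 μg/mL final (1.0% DMSO control) for 24 h at 37° C., 5% CO2. Then stained with 7.5 μg/mL propidium iodide for 15 min. % viability = PI-negative cells by flow cytometry, normalized to DMSO.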

pH 6.5 FaSSCoF Solubility, Run 2 [1]: 0.028 mg/mL
SMILES: COc1cc(Nc2cc(Oc3ccc(NC(=O)Nc4cc(C(C)(C)C)cc(NS(C)(=O)=O)c4OC)c4ccccc34)ccn2)ccc1C(=O)NCCC(=O)O [17(ay) (hydrochloride salt), 3-(4-((4-((4-(3-(5-(tert-Butyl)-2-methoxy-3-(methylsulfonamido)phenyl)ureido)-naphthalen-1-yl)oxy)pyridin-2-yl)amino)-2-methoxybenzamido)propanoic acid]

solubility thermodynamic at 24 h [1]: 6 µg/mL (≈ 7.1 µM)
pH 6.5 FaSSCoF Solubility, Run 2 [1]: 0.006 mg/mL
SMILES: COc1cc(Nc2cc(Oc3ccc(NC(=O)Nc4cc(C(C)(C)C)cc(NS(C)(=O)=O)c4OC)c4ccccc34)ccn2)ccc1C(=O)N1C[C@H](O)[C@@H](O)[C@H](O)[C@H]1CO [17(ci), N-(5-(tert-Butyl)-2-methoxy-3-(3-(4-((2-((3-methoxy-4-((2R,3R,4R,5S)-3,4,5-trihydroxy-2-(hydroxymethyl)piperidine-1-carbonyl)phenyl)amino)pyridin-4-yl)oxy)naphthalen-1-yl)ureido)phenyl)methanesulfonamide]

SMILES: COc1cc(Nc2cc(Oc3ccc(NC(=O)Nc4cc(C(C)(C)C)cc(NS(C)(=O)=O)c4OC)c4ccccc34)ccn2)ccc1C(=O)O [Example 1, sodium salt]
Purity at week n = 4 ([2]; Sample 1, 40° C.): 76.0%

solubility thermodynamic at 24 h [1]: > 4700 µg/mL
pH 6.5 FaSSCoF Solubility, Run 2 [1]: >4.7 mg/mL
SMILES: COc1cc(Nc2cc(Oc3ccc(NC(=O)Nc4cc(C(C)(C)C)cc(NS(C)(=O)=O)c4OC)c4ccccc34)ccn2)ccc1C(=O)NCCOCCOCCOP(=O)(O)O [19 (sodium salt), 2-(2-(2-(4-((4-((4-(3-(5-(tert-Butyl)-2-methoxy-3-(methylsulfonamido)phenyl)ureido)-naphthalen-1-yl)oxy)pyridin-2-yl)amino)-2-methoxybenzamido)ethoxy)ethoxy)ethyl dihydrogen phosphate]

pH 6.5 FaSSCoF Solubility, Run 2 [1]: 0.049 mg/mL
SMILES: COc1cc(Nc2cc(Oc3ccc(NC(=O)Nc4cc(C(C)(C)C)cc(NS(C)(=O)=O)c4OC)c4ccccc34)ccn2)ccc1C(=O)NCCNC(=O)CCC(=O)O [17(cd) (hydrochloride salt), 4-((2-(4-((4-((4-(3-(5-(tert-Butyl)-2-methoxy-3-(methylsulfonamido)phenyl)ureido)-naphthalen-1-yl)oxy)pyridin-2-yl)amino)-2-methoxybenzamido)ethyl)amino)-4-oxobutanoic acid]

SMILES: COc1cc(Nc2cc(Oc3ccc(NC(=O)Nc4cc(C(C)(C)C)cc(NS(C)(=O)=O)c4OC)c4ccccc34)ccn2)ccc1P(C)(=O)O [44 (sodium salt), (4-((4-((4-(3-(5-(tert-Butyl)-2-methoxy-3-(methylsulfonamido)phenyl)ureido)naphthalen-1-yl)oxy)pyridin-2-yl)amino)-2-methoxyphenyl)(methyl)phosphinic acid]
pH 6.5 FaSSCoF Solubility, Run 1 [1]: >7.6 mg/mL
pH 6.5 FaSSCoF Solubility, Run 2 [1]: >5.5 mg/mL

pH 6.5 FaSSCoF Solubility, Run 2 [1]: 0.049 mg/mL
SMILES: COc1cc(Nc2nccc(Oc3ccc(NC(=O)Nc4cc(C(C)(C)C)cc(NS(C)(=O)=O)c4OC)c4ccccc34)n2)ccc1C(=O)NCCC1CCN(C)CC1 [17(an), 4-((4-((4-(3-(5-(tert-butyl)-2-methoxy-3-(methylsulfonamido)phenyl)ureido)naphthalen-1-yl)oxy)pyrimidin-2-yl)amino)-2-methoxy-N-(2-(1-methylpiperidin-4-yl)ethyl)benzamide]
% Viability at 1 μg/mL (Jurkat cells): 97.9%
% Viability at 5 μg/mL (Jurkat cells): 37.9%
% Viability at 20 μg/mL (Jurkat cells): 1.1%

SMILES: COc1cc(Nc2cc(Oc3ccc(NC(=O)Nc4cc(C(C)(C)C)cc(NS(C)(=O)=O)c4OC)c4ccccc34)ccn2)ccc1P(C)(=O)O [44 (ammonium salt), (4-((4-((4-(3-(5-(tert-Butyl)-2-methoxy-3-(methylsulfonamido)phenyl)ureido)naphthalen-1-yl)oxy)pyridin-2-yl)amino)-2-methoxyphenyl)(methyl)phosphinic acid]
pH 6.5 FaSSCoF Solubility, Run 1 [1]: >2.4 mg/mL
pH 6.5 FaSSCoF Solubility, Run 2 [1]: >2.4 mg/mL

SMILES: COc1cc(Nc2cc(Oc3ccc(NC(=O)Nc4cc(C(C)(C)C)cc(NS(C)(=O)=O)c4OC)c4ccccc34)ccn2)ccc1C(=O)O [1 (sodium salt), 4-((4-((4-(3-(5-(tert-Butyl)-2-methoxy-3-(methylsulfonamido)phenyl)ureido)naphthalen-1-yl)oxy)pyridin-2-yl)amino)-2-methoxybenzoic acid]
pH 6.5 FaSSCoF Solubility, Run 2 [1]: 0.032 mg/mL

pH 6.5 FaSSCoF Solubility, Run 2 [1]: 0.024 mg/mL
SMILES: COc1cc(Nc2cc(Oc3ccc(NC(=O)Nc4cc(NS(C)(=O)=O)cc(C(C)(C)C)c4)c4ccccc34)ccn2)ccc1C(=O)NCCCN1CCN(C)CC1 [17(bp), 4-((4-((4-(3-(3-(tert-Butyl)-5-(methylsulfonamido)phenyl)ureido)naphthalen-1-yl)oxy)pyridin-2-yl)amino)-2-methoxy-N-(3-(4-methylpiperazin-1-yl)propyl)benzamide]
% Viability at 1 μg/mL (Jurkat cells): 93.2%
% Viability at 5 μg/mL (Jurkat cells): 41.0%
% Viability at 20 μg/mL (Jurkat cells): 2.0%

pH 6.5 FaSSCoF Solubility, Run 2 [1]: 0.024 mg/mL
SMILES: COc1cc(Nc2cc(Oc3ccc(NC(=O)Nc4cc(C(C)(C)C)cc(NS(C)(=O)=O)c4OC)c4ccccc34)ccn2)cc(OC)c1C(=O)NCCN1CCN(CCO)CC1 [Example 37, 4-((4-((4-(3-(5-(tert-Butyl)-2-methoxy-3-(methylsulfonamido)phenyl)ureido)naphthalen-1-yl)oxy)pyridin-2-yl)amino)-N-(2-(4-(2-hydroxyethyl)piperazin-1-yl)ethyl)-2,6-dimethoxybenzamide]
% Viability at 1 μg/mL (Jurkat cells): 52.9%
% Viability at 5 μg/mL (Jurkat cells): 55.8%
% Viability at 20 μg/mL (Jurkat cells): 28.9%

pH 6.5 FaSSCoF Solubility, Run 2 [1]: 0.198 mg/mL
SMILES: COc1cc(Nc2cc(Oc3ccc(NC(=O)Nc4cc(C(C)(C)C)cc(NS(C)(=O)=O)c4OC)c4ccccc34)ccn2)ccc1C(=O)NCC(=O)O [17(ar) (hydrochloride salt), 2-(4-((4-((4-(3-(5-(tert-Butyl)-2-methoxy-3-(methylsulfonamido)phenyl)ureido)naphthalen-1-yl)oxy)pyridin-2-yl)amino)-2-methoxybenzamido)acetic acid]

SMILES: COc1cc(Nc2cc(Oc3ccc(NC(=O)Nc4cc(C(C)(C)C)cc(NS(C)(=O)=O)c4OC)c4ccccc34)ccn2)ccc1C(=O)O.Cl [Example 1, hydrochloride salt]
Original Purity ([2]; Sample 1): 98.1%
Purity at week n = 1 ([2]; Sample 1, 5° C.): 98.2%
Purity at week n = 2 ([2]; Sample 1, 5° C.): 98.1%
Purity at week n = 4 ([2]; Sample 1, 5° C.): 97.9%
Purity at week n = 1 ([2]; Sample 1, 25° C.): 98.0%
Purity at week n = 2 ([2]; Sample 1, 25° C.): 97.7%
Purity at week n = 4 ([2]; Sample 1, 25° C.): 97.2%
Purity at week n = 4 ([2]; Sample 1, 40° C.): 79.2%
Original Purity ([2]; Sample 2): 98.1%
Purity at week n = 1 ([2]; Sample 2, 5° C.): 98.2%
Purity at week n = 2 ([2]; Sample 2, 5° C.): 98.0%
Purity at week n = 4 ([2]; Sample 2, 5° C.): 98.0%
Purity at week n = 1 ([2]; Sample 2, 25° C.): 98.0%
Purity at week n = 2 ([2]; Sample 2, 25° C.): 97.6%
Purity at week n = 4 ([2]; Sample 2, 25° C.): 97.4%
Purity at week n = 4 ([2]; Sample 2, 40° C.): 80.4%
